Like-named read-outs stand apart in the source and are kept apart here.
Assay: Simulated intestinal fluid (SIF) stability in the presence of various enzymes
Type: in vitro ADME
Conditions: 1 μM
Summary of the method: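 Test article at 1 μM final was dosed into pre-warmed (37 °C) simulated intestinal fluid, potassium phosphate buffer at pH 6.8, spiked with individual enzymes. Timed samples were held at 4 °C, then centrifuged and quantified against calibration standards in matched matrix.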

[1] = SIF + Carboxypeptidase A, 0 min
[2] = SIF + Carboxypeptidase A, 15 min
[3] = SIF + Carboxypeptidase A, 30 min
[4] = SIF + Carboxypeptidase A, 60 min
[5] = SIF + Carboxypeptidase A, 120 min
[6] = SIF + Carboxypeptidase B, 0 min
[7] = SIF + Carboxypeptidase B, 15 min
[8] = SIF + Carboxypeptidase B, 30 min
[9] = SIF + Carboxypeptidase B, 60 min
[10] = SIF + Carboxypeptidase B, 120 min
[11] = simulated intestinal fluid with carboxypeptidase A, pH 6.8, SIF + Carboxypeptidase A, read-out: Half-life
[12] = simulated intestinal fluid with carboxypeptidase B, pH 6.8, SIF + Carboxypeptidase B, read-out: Half-life
[13] = simulated intestinal fluid with chymotrypsin, pH 6.8, SIF + Chymotrypsin, read-out: Half-life
[14] = simulated intestinal fluid with elastase, pH 6.8, SIF + Elastase, read-out: Half-life
[15] = simulated intestinal fluid with pancreatin, pH 6.8, SIF + Pancreatin, read-out: Half-life
[16] = simulated intestinal fluid with trypsin, pH 6.8, SIF + Trypsin, read-out: Half-life

% Remaining of Initial (n = 1) [1] | % Remaining of Initial (n = 1) [2] | % Remaining of Initial (n = 1) [3] | % Remaining of Initial (n = 1) [4] | % Remaining of Initial (n = 1) [5] | % Remaining of Initial (n = 1) [6] | % Remaining of Initial (n = 1) [7] | % Remaining of Initial (n = 1) [8] | % Remaining of Initial (n = 1) [9] | % Remaining of Initial (n = 1) [10] | % Remaining of Initial (n = 1) (SIF + Chymotrypsin, 0 min) | % Remaining of Initial (n = 1) (SIF + Chymotrypsin, 15 min) | % Remaining of Initial (n = 1) (SIF + Chymotrypsin, 30 min) | % Remaining of Initial (n = 1) (SIF + Chymotrypsin, 60 min) | % Remaining of Initial (n = 1) (SIF + Chymotrypsin, 120 min) | % Remaining of Initial (n = 1) (SIF + Elastase, 0 min) | % Remaining of Initial (n = 1) (SIF + Elastase, 15 min) | % Remaining of Initial (n = 1) (SIF + Elastase, 30 min) | % Remaining of Initial (n = 1) (SIF + Elastase, 60 min) | % Remaining of Initial (n = 1) (SIF + Elastase, 120 min) | other results | SMILES
100% | 43% | 15% | 10% | 5.5% | 100% | 44% | 14% | 6.1% | 4.7% | 100% | 45% | 24% | 11% | 7.2% | 100% | 49% | 22% | 10% | 6.3% | % Remaining of Initial (n = 1) (SIF + Pancreatin, 0 min): 100%; % Remaining of Initial (n = 1) (SIF + Pancreatin, 15 min): 35%; % Remaining of Initial (n = 1) (SIF + Pancreatin, 30 min): 34%; % Remaining of Initial (n = 1) (SIF + Pancreatin, 60 min): 20%; % Remaining of Initial (n = 1) (SIF + Pancreatin, 120 min): 13%; % Remaining of Initial (n = 1) (SIF + Trypsin, 0 min): 100%; % Remaining of Initial (n = 1) (SIF + Trypsin, 15 min): 67%; % Remaining of Initial (n = 1) (SIF + Trypsin, 30 min): 49%; % Remaining of Initial (n = 1) (SIF + Trypsin, 60 min): 22%; % Remaining of Initial (n = 1) (SIF + Trypsin, 120 min): 12%; half-life at 1 μM [11]: 12 min; half-life at 1 μM [12]: 12 min; half-life at 1 μM [13]: 14 min; half-life at 1 μM [14]: 15 min; half-life at 1 μM [15]: 17 min; half-life at 1 μM [16]: 29 min | CCCCCCCCCCCCCCCC(=O)NCCOC(=O)CCC(=O)OCC(O)CO (stereo not shown) [Compound I-9]
100% | 73% | 78% | 42% | 18% | 100% | 68% | 50% | 33% | 9.6% | 100% | 84% | 63% | 42% | 21% | 100% | 70% | 50% | 33% | 17% | % Remaining of Initial (n = 1) (SIF + Pancreatin, 0 min): 100%; % Remaining of Initial (n = 1) (SIF + Pancreatin, 15 min): <1.0%; % Remaining of Initial (n = 1) (SIF + Pancreatin, 30 min): <1.0%; % Remaining of Initial (n = 1) (SIF + Pancreatin, 60 min): <1.0%; % Remaining of Initial (n = 1) (SIF + Pancreatin, 120 min): <1.0%; % Remaining of Initial (n = 1) (SIF + Trypsin, 0 min): 100%; % Remaining of Initial (n = 1) (SIF + Trypsin, 15 min): 77%; % Remaining of Initial (n = 1) (SIF + Trypsin, 30 min): 62%; % Remaining of Initial (n = 1) (SIF + Trypsin, 60 min): 45%; % Remaining of Initial (n = 1) (SIF + Trypsin, 120 min): 23%; half-life at 1 μM [11]: 53 min; half-life at 1 μM [12]: 34 min; half-life at 1 μM [13]: 50 min; half-life at 1 μM [14]: 37 min; half-life at 1 μM [15]: < 1 min; half-life at 1 μM [16]: 53 min | CCCCCCCCCCCCCCCC(=O)NCCOC(=O)CCC(=O)OCC(COC(=O)CCC)OC(=O)CCC (stereo not shown) [Compound I-11]
100% | 77% | 53% | 27% | 37% | 100% | 65% | 31% | 14% | 8.7% | 100% | 82% | 67% | 45% | 15% | 100% | 41% | 16% | 5.6% | 5.0% | % Remaining of Initial (n = 1) (SIF + Pancreatin, 0 min): 100%; % Remaining of Initial (n = 1) (SIF + Pancreatin, 15 min): 1.3%; % Remaining of Initial (n = 1) (SIF + Pancreatin, 30 min): 3.7%; % Remaining of Initial (n = 1) (SIF + Pancreatin, 60 min): 3.4%; % Remaining of Initial (n = 1) (SIF + Pancreatin, 120 min): <1.0%; % Remaining of Initial (n = 1) (SIF + Trypsin, 0 min): 100%; % Remaining of Initial (n = 1) (SIF + Trypsin, 15 min): 78%; % Remaining of Initial (n = 1) (SIF + Trypsin, 30 min): 70%; % Remaining of Initial (n = 1) (SIF + Trypsin, 60 min): 55%; % Remaining of Initial (n = 1) (SIF + Trypsin, 120 min): <1.0%; half-life at 1 μM [11]: 47 min; half-life at 1 μM [12]: 20 min; half-life at 1 μM [13]: 49 min; half-life at 1 μM [14]: 12 min; half-life at 1 μM (simulated intestinal fluid with pancreatin, pH 6.8, SIF + Pancreatin, outside the sampled time range, read-out: Half-life, calculated (in parentheses)): 2.5 min; half-life at 1 μM [15]: < 15 min; half-life at 1 μM [16]: 47 min | CCCCC/C=C\C/C=C\CCCCCCCC(=O)OCC(COC(=O)CCC(=O)OCCNC(=O)CCCCCCCCCCCCCCC)OC(=O)CCCCCCC/C=C\C/C=C\CCCCC (stereo not shown) [Compound I-13]
